Source: patent US20260118345A1, “METHOD OF EVALUATING INTERCELLULAR INTERACTIONS IN NEUROINFLAMMATION” (FUJIFILM Corporation, priority 2023, published 2026)

Experiments:
Format in all cases: cell-based, human
[1] = system: three-cell-type co-culture of neurons, astrocytes, and microglia; assay: Neural activity by calcium imaging (BPM), two-dimensional three-cell-type co-culture of neurons, astrocytes and microglia; conditions: 24 hours after stimulation (TNF-α 7.5 ng/mL or LPS 100 ng/mL)
Procedure: Matrigel basement membrane matrix (Corning, 356234) diluted 120-fold with DMEM/F12 (Life technologies, 11320-033) was added to a 96-well plate at 65 μL/well and allowed to stand at 4° C. After 24 hours, the culture medium was replaced with a progenitor cell culture medium and used. Astrocyte precursor cells (XCell Science, XCS-AP-001-1V) were seeded in a 96-well plate at a density of 6×10^4 cells/well, cultured under the conditions of 37° C. and 5% CO2, after culture medium was replaced with the differentiation induction culture medium, further cultured for 5 days to differentiate into astrocytes. […] After centrifugation, the supernatant was removed, the cells were suspended in 1 mL of the co-culture medium, and the number of cells was counted. […] After centrifugation, the supernatant was removed, the cells were suspended in 1 mL of the co-culture medium, and the number of cells was counted. […] In addition, at 24 hours after the stimulation with LPS or TNF-α, the neural activity was evaluated by calcium imaging. […] After incubating for 1 hour under conditions of 37° C. and 5% CO2, the solution was replaced with a warmed (37° C.) recording solution, and the fluorescence was measured for 10 minutes with FDSS (registered trademark)/μcell (Hamamatsu Photonics K. K., C13299). […]

[2] = system: NF-κB; assay: NF-κB localization after LPS stimulation, two-cell-type co-culture of nerve and astrocytes; conditions: co-culture without microglia, all time points
[3] = system: NF-κB; assay: NF-κB localization by immunostaining after LPS stimulation, two-dimensional three-cell-type co-culture of astrocytes, neurons and microglia; conditions: LPS 100 ng/mL, no R-7050
Procedure: Matrigel basement membrane matrix (Corning, 356234) diluted 120-fold with DMEM/F12 (Life technologies, 11320-033) was added to a 96-well plate at 65 μL/well and allowed to stand at 4° C. After 24 hours, the culture medium was replaced with a progenitor cell culture medium and used.
Astrocyte precursor cells (XCell Science, XCS-AP-001-1V) were seeded in a 96-well plate at a density of 5×10^4 cells/well and cultured under the conditions of 37° C. and 5% CO2. The next day, the culture medium was replaced with the differentiation-inducing culture medium and further cultured for 5 days to differentiate into astrocytes.
The neurons were produced by forcing expression of the Ngn2 gene from iPS cells (WO2014/148646A; and Zhang Y, et al., Neuron, 78:785-98, 2013), and the cells that had been frozen and stored were used. The cells that had been frozen and stored were thawed in a warm bath at 37° C., and after thawing, the cells were added to the co-culture medium and centrifuged at 600×g at room temperature for 5 minutes. After centrifugation, the supernatant was removed, the cells were suspended in 1 mL of the co-culture medium, and the number of cells was counted.
As the microglia, iPS cell-derived microglia (iCell (registered trademark) Microglia, FCDI, C1110) were used. The cells that had been frozen and stored were thawed in a warm bath at 37° C., and after thawing, the cells were added to the co-culture medium and centrifuged at 600×g at room temperature for 5 minutes. After centrifugation, the supernatant was removed, the cells were suspended in 1 mL of the co-culture medium, and the number of cells was counted.
The neurons and the microglia were mixed in a ratio of 3:1 and seeded on the astrocytes at 4×10^4 cells/well. The cells were cultured under the conditions of 37° C. and 5% CO2, and half of the culture medium was replaced three times a week.
Microglia were specifically stimulated by adding LPS (FUJIFILM Wako Pure Chemical Corporation, 124-05151) at 100 ng/mL to the two-dimensional co-culture that had been cultured for 4 weeks. The cells were fixed by treating, for 30 minutes, with a formaldehyde solution (FUJIFILM Wako Pure Chemical Corporation, 061-00416) diluted 10-fold with PBS(−) (FUJIFILM Wako Pure Chemical Corporation, 166-23555) without treatment, and at 0.5 hours, 1 hour, 3 hours, 6 hours, and 24 hours after the treatment.
In addition, in the two-dimensional co-culture that had been cultured for 19 days, LPS (FUJIFILM Wako Pure Chemical Corporation, 124-05151) was added at 100 ng/ml and R-7050 (Cayman Chemical Company, 16870), which is a TNFR1 inhibitor, was added at 10 μmol/L, and the effect of TNF-α on the intercellular interaction induced by LPS stimulation was evaluated. The cells were fixed by treating, for 30 minutes, with a formaldehyde solution (FUJIFILM Wako Pure Chemical Corporation, 061-00416) diluted 10-fold with PBS (−) (FUJIFILM Wako Pure Chemical Corporation, 166-23555) without treatment, and at 0.5 hours, 1 hour, 3 hours, 6 hours, and 24 hours after the treatment.
The fixed cells were washed with PBS (−), and blocking and permeabilization were performed by treating with a solution (1% BSA/0.2% Triton X-100) in which BSA (Sigma-Aldrich, A4161) and Triton (registered trademark) X-100 (BioVision, 2104-100) were diluted to 1% and 0.2% with PBS (−) for 30 minutes. […]

## lipopolysaccharide [LPS]
[1]
  BPM (the number of peaks of calcium oscillation per minute) as compared with the control: increase
[2]
  nuclear translocation of NF-κB: not observed at any time
[3]; 0.5 hours and 1 hours after the LPS treatment
  nuclear translocation of NF-κB: only some cells
[3]; 3 hours and 6 hours after the LPS treatment
  nuclear translocation of NF-κB: many cells
